Results taken from patent US9839639B2, “Neprilysin inhibitors” (THERAVANCE BIOPHARMA R&D IP, LLC, priority 2014, dated 2017).

The compounds below were run against T1, human NEP (Homo sapiens, UniProt P08473) (assay: In vitro enzyme inhibition assay, inhibitor potency at human NEP). Conditions: recombinant human NEP, fluorogenic peptide substrate 10 μM, 37° C.; values given as ranges.
T1 construct: purchased R&D Systems, Minneapolis, Minn; 1182-ZN
Format: biochemical
Protocol: The inhibitory activities of compounds at human and rat neprilysin (EC 3.4.24.11; NEP) and human angiotensin converting enzyme (ACE) were determined using in vitro assays as described below.
Recombinant human NEP and recombinant human ACE were obtained commercially (R&D Systems, Minneapolis, Minn., catalog numbers 1182-ZN and 929-ZN, respectively). The fluorogenic peptide substrate Mca-D-Arg-Arg-Leu-Dap-(Dnp)-OH (Medeiros et al. (1997) Braz. J. Med. Biol. Res. 30:1157-62; Anaspec, San Jose, Calif.) and Abz-Phe-Arg-Lys(Dnp)-Pro-OH (Araujo et al. (2000) Biochemistry 39:8519-8525; Bachem, Torrance, Calif.) were used in the NEP and ACE assays respectively.
The assays were performed in 384-well white opaque plates at 37° C. using the fluorogenic peptide substrates at a concentration of 10 μM in Assay Buffer (NEP: 50 mM HEPES, pH 7.5, 100 mM NaCl, 0.01% polyethylene glycol sorbitan monolaurate (Tween-20), 10 μM ZnSO4; ACE: 50 mM HEPES, pH 7.5, 100 mM NaCl, 0.01% Tween-20, 1 μM ZnSO4).
Test compounds were assayed over the range of concentrations from 10 μM to 20 pM. Test compounds were added to the enzymes and incubated for 30 minute at 37° C. prior to initiating the reaction by the addition of substrate. Reactions were terminated after 20 minutes of incubation at 37° C. by the addition of glacial acetic acid to a final concentration of 3.6% (v/v).
Plates were read on a fluorometer with excitation and emission wavelengths set to 320 nm and 405 nm, respectively. Inhibition constants were obtained by nonlinear regression of the data using the equation (GraphPad Software, Inc., San Diego, Calif.): v=v0/[1+(I/K′)] where v is the reaction rate, v0 is the uninhibited reaction rate, I is the inhibitor concentration and K′ is the apparent inhibition constant.
Compounds of the invention were tested in this assay and found to have pKi values at human NEP as follows.

T1 sequence (P08473 52-750 limits assumed): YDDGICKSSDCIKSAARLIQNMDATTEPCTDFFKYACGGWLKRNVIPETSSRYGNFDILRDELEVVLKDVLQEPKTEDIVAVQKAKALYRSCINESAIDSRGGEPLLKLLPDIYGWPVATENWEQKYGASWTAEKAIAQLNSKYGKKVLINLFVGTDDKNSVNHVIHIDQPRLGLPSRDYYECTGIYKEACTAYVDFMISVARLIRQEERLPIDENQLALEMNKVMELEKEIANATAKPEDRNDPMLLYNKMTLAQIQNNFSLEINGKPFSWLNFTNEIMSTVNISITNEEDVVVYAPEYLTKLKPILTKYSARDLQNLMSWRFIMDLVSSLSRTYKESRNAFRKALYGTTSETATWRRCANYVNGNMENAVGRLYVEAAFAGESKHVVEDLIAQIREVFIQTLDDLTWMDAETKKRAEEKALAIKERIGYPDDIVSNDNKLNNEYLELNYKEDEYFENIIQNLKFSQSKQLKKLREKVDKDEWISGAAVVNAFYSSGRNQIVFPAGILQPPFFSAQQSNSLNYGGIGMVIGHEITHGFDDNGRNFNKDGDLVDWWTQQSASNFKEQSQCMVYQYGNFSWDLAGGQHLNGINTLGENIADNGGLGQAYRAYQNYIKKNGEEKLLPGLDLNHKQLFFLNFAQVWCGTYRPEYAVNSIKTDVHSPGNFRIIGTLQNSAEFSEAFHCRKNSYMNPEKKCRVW

Compared with `CC(N)(C[C@@H](Cc1ccc(-c2cc(Cl)ccc2F)cc1)NC(=O)c1cnn[nH]1)C(=O)O` (single isomer, unassigned) [Example 1a], `C[C@@](CN)(C[C@@H](Cc1ccc(-c2cc(Cl)ccc2F)cc1)NC(=O)c1cnn[nH]1)C(=O)O` [Example 2, (2S,4R)-2-Aminomethyl-5-(5′-chloro-2′-fluorobiphenyl-4-yl)-2-methyl-4-[(3H-[1,2,3]triazole-4-carbonyl)amino]pentanoic Acid] is lower in Ki: 3.98 to 10 nM for the first, at most 1 nM for the second.

`C[C@@](CN)(C[C@@H](Cc1ccc(-c2cc(Cl)ccc2F)cc1)NC(=O)c1ccn(C(F)F)n1)C(=O)O` [Example 3, (2S,4R)-2-Aminomethyl-5-(5′-chloro-2′-fluorobiphenyl-4-yl)-4-[(1-difluoromethyl-1H-pyrazole-3-carbonyl)amino]-2-methylpentanoic Acid] and `Cc1cnc(C(=O)N[C@H](Cc2ccc(-c3cc(Cl)ccc3F)cc2)C[C@@](C)(CN)C(=O)O)o1` [Example 4-2, (2S,4R)-2-Aminomethyl-5-(5′-chloro-2′-fluorobiphenyl-4-yl)-2-methyl-4-[(5-methyl-oxazole-2-carbonyl)amino]pentanoic acid] fall in the same range of Ki: 1.26 to 3.16 nM for the first, 1.26 to 3.16 nM for the second.

Compared with `CCOC[C@](C)(C[C@@H](Cc1ccc(-c2cc(Cl)ccc2F)cc1)NC(=O)c1ncccn1)C(=O)O` [Example 11-3, (2S,4R)-5-(5′-Chloro-2′-fluorobiphenyl-4-yl)-2-ethoxymethyl-2-methyl-4-[(pyrimidine-2-carbonyl)amino]pentanoic acid], `COC[C@](C)(C[C@@H](Cc1ccc(-c2cc(Cl)ccc2F)cc1)NC(=O)c1ncccn1)C(=O)O` [Example 8-4, (2S,4R)-5-(5′-Chloro-2′-fluorobiphenyl-4-yl)-2-methoxymethyl-2-methyl-4-[(pyrimidine-2-carbonyl)amino]pentanoic acid] is lower in Ki: 1.26 to 3.16 nM for the first, at most 1 nM for the second.

First: COC[C@](C)(C[C@@H](Cc1ccc(-c2cc(Cl)ccc2F)cc1)NC(=O)c1ccc(Cl)cn1)C(=O)O [Example 8-3, (2S,4R)-5-(5′-Chloro-2′-fluorobiphenyl-4-yl)-4-[(5-chloropyridine-2-carbonyl)amino]-2-methoxymethyl-2-methylpentanoic acid]
Second: CCOC[C@](C)(C[C@@H](Cc1ccc(-c2cc(Cl)ccc2F)cc1)NC(=O)c1ccc(Cl)cn1)C(=O)O [Example 11-2, (2S,4R)-5-(5′-Chloro-2′-fluorobiphenyl-4-yl)-4-[(5-chloropyridine-2-carbonyl)amino]-2-ethoxymethyl-2-methylpentanoic acid]
The Ki of the first is higher: 1.26 to 3.16 nM for the first, at most 1 nM for the second.

`COC[C@](C)(C[C@@H](Cc1ccc(-c2cc(Cl)ccc2F)cc1)NC(=O)c1coc(C2CC2)n1)C(=O)O` [Example 8-2, (2S,4R)-5-(5′-Chloro-2′-fluorobiphenyl-4-yl)-4-[(2-cyclopropyloxazole-4-carbonyl)amino]-2-methoxymethyl-2-methylpentanoic acid] and `CCOC[C@](C)(C[C@@H](Cc1ccc(-c2cc(Cl)ccc2F)cc1)NC(=O)c1coc(C2CC2)n1)C(=O)O` [Example 10, (2S,4R)-5-(5′-Chloro-2′-fluorobiphenyl-4-yl)-4-[(2-cyclopropyoxazole-4-carbonyl)amino]-2-ethoxymethyl-2-methylpentanoic Acid] fall in the same range of Ki: 1.26 to 3.16 nM for the first, 1.26 to 3.16 nM for the second.

First: O=C(N[C@H](Cc1ccc(-c2cc(Cl)ccc2F)cc1)CC(CO)(CCO)C(=O)O)c1cnn[nH]1 (single isomer, unassigned) [Example 16b]
Second: CC(=O)NCCC(CO)(C[C@@H](Cc1ccc(-c2cc(Cl)ccc2F)cc1)NC(=O)c1cnn[nH]1)C(=O)O (stereo partly drawn) [Example 18, (R)-2-(2-Acetylaminoethyl)-5-(5′-chloro-2′-fluorobiphenyl-4-yl)-2-hydroxymethyl-4-[(3H-[1,2,3]triazole-4-carbonyl)amino]pentanoic Acid]
The Ki of the first is higher: 12.6 to 31.6 nM for the first, at most 1 nM for the second. The second binds more tightly here.

Compared with `CC(C#N)(C[C@@H](Cc1ccc(-c2cc(Cl)ccc2F)cc1)NC(=O)c1cnn[nH]1)C(=O)O` (single isomer, unassigned) [Example 12a], `CCC(C#N)(C[C@@H](Cc1ccc(-c2cc(Cl)ccc2F)cc1)NC(=O)c1cnn[nH]1)C(=O)O` (single isomer, unassigned) [Example 23a] is lower in Ki: 39.8 to 100 nM for the first, at most 1 nM for the second. The second binds more tightly here.

Compared with `C=CCC(CO)(C[C@@H](Cc1ccc(-c2cc(Cl)ccc2F)cc1)NC(=O)c1cnn[nH]1)C(=O)O` (single isomer, unassigned) [Example 19a], `O=C(N[C@H](Cc1ccc(-c2cc(Cl)ccc2F)cc1)CC(CO)(CCO)C(=O)O)c1cnn[nH]1` (single isomer, unassigned) [Example 16a] is higher in Ki: at most 1 nM for the first, 1.26 to 3.16 nM for the second.

Compared with `CC(C#N)(C[C@@H](Cc1ccc(-c2cc(Cl)ccc2F)cc1)NC(=O)c1cnn[nH]1)C(=O)O` (single isomer, unassigned) [Example 12b], `CCC(C#N)(C[C@@H](Cc1ccc(-c2cc(Cl)ccc2F)cc1)NC(=O)c1cnn[nH]1)C(=O)O` (single isomer, unassigned) [Example 23b] is higher in Ki: at most 1 nM for the first, 126 to 316 nM for the second.

`CC(=O)N1CCC(C[C@@H](Cc2ccc(-c3cc(Cl)ccc3F)cc2)NC(=O)c2cnn[nH]2)(C(=O)O)C1` (single isomer, unassigned) [Example 22a] and `CC(C[C@@H](Cc1ccc(-c2cc(Cl)ccc2F)cc1)NC(=O)c1c[nH]nn1)(C(=O)O)C(=O)O` [Example 6, 2-{(R)-3-(5′-Chloro-2′-fluorobiphenyl-4-yl)-2-[(1H-[1,2,3]triazole-4-carbonyl)amino]propyl}-2-methylmalonic Acid] cannot be ordered by Ki: at most 1 nM for the first, at most 1 nM for the second.

`COC[C@](C)(C[C@@H](Cc1ccc(-c2cc(Cl)ccc2F)cc1)NC(=O)c1ncc(C)o1)C(=O)O` [Example 8-1, (2S,4R)-5-(5′-Chloro-2′-fluorobiphenyl-4-yl)-2-methoxymethyl-2-methyl-4-[(5-methyloxazole-2-carbonyl)amino]pentanoic acid] and `COC[C@](C)(C[C@@H](Cc1ccc(-c2cc(Cl)ccc2F)cc1)NC(=O)c1ncco1)C(=O)O` [Example 8-6, (2S,4R)-5-(5′-Chloro-2′-fluorobiphenyl-4-yl)-2-methoxymethyl-2-methyl-4-[(oxazole-2-carbonyl)amino]pentanoic acid] cannot be ordered by Ki: at most 1 nM for the first, at most 1 nM for the second.

`COC[C@](C)(C[C@@H](Cc1ccc(-c2cc(Cl)ccc2F)cc1)NC(=O)c1nc[nH]n1)C(=O)O` [Example 8-7, (2S,4R)-5-(5′-Chloro-2′-fluorobiphenyl-4-yl)-2-methoxymethyl-2-methyl-4-[(1H-[1,2,4]triazole-3-carbonyl)amino]pentanoic acid] and `COC[C@](C)(C[C@@H](Cc1ccc(-c2cc(Cl)ccc2F)cc1)NC(=O)c1cn(OC)nn1)C(=O)O` [Example 8-9, (2S,4R)-5-(5′-Chloro-2′-fluorobiphenyl-4-yl)-2-methoxymethyl-4-[(1-methoxy-1H-[1,2,3]triazole-4-carbonyl)amino]-2-methylpentanoic acid] fall in the same range of Ki: 1.26 to 3.16 nM for the first, 1.26 to 3.16 nM for the second.

First: C[C@](C[C@@H](Cc1ccc(-c2cc(Cl)ccc2F)cc1)NC(=O)c1c[nH]nn1)(C(N)=O)C(=O)O [Example 5, (2S,4R)-2-Carbamoyl-5-(5′-chloro-2′-fluorobiphenyl-4-yl)-2-methyl-4-[(1H-[1,2,3]triazole-4-carbonyl)amino]pentanoic Acid]
Second: COC[C@](C)(C[C@@H](Cc1ccc(-c2cc(Cl)ccc2F)cc1)NC(=O)c1cn(CCO)nn1)C(=O)O [Example 8-10, (2S,4R)-5-(5′-Chloro-2′-fluorobiphenyl-4-yl)-4-{[1-(2-hydroxyethyl)-1H-[1,2,3]triazole-4-carbonyl]amino}-2-methoxymethyl-2-methylpentanoic acid]
The Ki of the first is lower: at most 1 nM for the first, 1.26 to 3.16 nM for the second.

`CCOn1cc(C(=O)N[C@H](Cc2ccc(-c3cc(Cl)ccc3F)cc2)C[C@@](C)(COC)C(=O)O)nn1` [Example 8-8, (2S,4R)-5-(5′-Chloro-2′-fluorobiphenyl-4-yl)-4-[(1-ethoxy-1H-[1,2,3]triazole-4-carbonyl)amino]-2-methoxymethyl-2-methylpentanoic acid] and `COC[C@](C)(C[C@@H](Cc1ccc(-c2cc(Cl)ccc2F)cc1)NC(=O)c1noc(=O)[nH]1)C(=O)O` [Example 7, (2S,4R)-5-(5′-Chloro-2′-fluorobiphenyl-4-yl)-2-methoxymethyl-2-methyl-4-[(5-oxo-4,5-dihydro-[1,2,4]oxadiazole-3-carbonyl)amino]pentanoic Acid] cannot be ordered by Ki: at most 1 nM for the first, at most 1 nM for the second.

In the case of `CCC(CO)(C[C@@H](Cc1ccc(-c2cc(Cl)ccc2F)cc1)NC(=O)c1cnn[nH]1)C(=O)O` (single isomer, unassigned) [Example 14b], the pKi is reported as “≧9.0”.
With `CCCC(CO)(C[C@@H](Cc1ccc(-c2cc(Cl)ccc2F)cc1)NC(=O)c1cnn[nH]1)C(=O)O` (single isomer, unassigned) [Example 15b] the pKi was “≧9.0”.
For `O=C(N[C@H](Cc1ccc(-c2cc(Cl)ccc2F)cc1)CC1(C(=O)O)CCOC1)c1cnn[nH]1` (single isomer, unassigned) [Example 20b], the pKi was “≧9.0”.
